{"source": "paper PMC10712727", "about": "“Safety, Tolerability, and Pharmacokinetics of Senaparib, a Novel PARP1/2 Inhibitor, in Chinese Patients With Advanced Solid Tumors: A Phase I Trial” (The Oncologist, 2023)", "test_system": "patients with advanced solid tumors", "assay": "Dose-limiting toxicities, MTD and RP2D determination (modified 3 + 3 dose escalation)", "format": "in vivo", "description": "Dose escalation was conducted using a modified Fibonacci 3 + 3 method (Supplementary Fig. S1).[17] Patients were administered oral senaparib from a planned starting dose of 2 mg once daily (QD), with preliminary dose escalation to 120 mg via nine dose groups, in order of their entry into the study. At a given dose level, each patient received a single dose of senaparib followed by a 7-day washout period. They then entered a continuous dosing period to confirm the safety and PK profile, in which they received senaparib QD from day 1 to day 21 of each 3-week cycle. Progression to the next higher dose required approval from the Data Safety Monitoring Committee (DSMC) upon review of the safety and PK data of the previous dose. […]\nDLTs were predefined toxicities (Supplementary Table S2) recorded over the 7 days following the single-dose administration of senaparib and during the first treatment cycle (day 1-day 21) for each dose group in the dose-escalation period only. […] Plasma concentrations of senaparib were determined using high-performance liquid chromatography-tandem mass spectrometry. Tumor response was assessed every 6 weeks per RECIST v1.1,[16] recording objective response rate (ORR), disease control rate (DCR), duration of response (DOR), and progression-free survival (PFS) by dose level for all patients and for those harboring BRCA^mut+ tumors.", "note": "“Also recorded” adds a separate entry of the source."}
{"smiles": "O=C(c1cc(Cn2c(=O)[nH]c(=O)c3c(F)cccc32)ccc1F)N1CCN(c2ncccn2)CC1", "note": "[Senaparib]", "values": [{"measurement": "Dose-limiting toxicities (DLTs)", "setting": "DLT observation period, dose escalation, 2-120 mg QD and 50 mg BID", "result": "No dose-limiting toxicities were observed; also recorded: No DLTs were observed"}, {"measurement": "Maximum tolerated dose (MTD)", "setting": "doses up to 120 mg QD", "result": "not reached"}]}
